Data on three compounds can be found in patent publication US12497396B2, “Nitrogen-containing heterocyclic derivatives, method therefor and application therefor as inhibitors of KRAS G12C for the treatment of cancers” (SHANGHAI HANSOH BIOMEDICAL CO., LTD., priority 2019, dated 2025).

The nature of one series: in vitro. Format: in vitro ADME. The method, then:
(§1) Animal or human whole blood was collected, then the blood was put into a test tube containing anticoagulant, centrifuged at 3500 rpm for 10 min, and the upper layer of pale yellow plasma was collected. • 2), 10 μM of tested compound (m/M/V=C)
(§2) The compound was weighed, the stock solution was prepared with DMSO and the working solution was prepared with 100 mM phosphate buffer. • 3), 10 μM of positive control (1) Propantheline (Propantheline Mr=449.4 Da)
(§3) • 1) 285 μL of plasma and 15 μL of 10 μM compound (tested compound) were added in turn in a 96-well plate, and incubated at 37° C. • 2) 40 μL was taken out at 0, 15, 30, 60, 90, 120 min, respectively, and 160 μL of acetonitrile termination solution containing internal standard was added. • 3) After centrifugation (3500 rpm, 10 min), 50 μL of supernatant was taken out, and then diluted with 50 μL DDH2O and injected to LC-MS/MS.
(§4) • Instrument: Shimadzu LC-20 AD • Chromatographic column: phenomenex Gemiu® C18 (50*4.6 mm, 5 μM particle size); • mobile phase: A: acetonitrile, B: 0.1% formic acid solution […], 2.0-2.1 min: 90% A→5% A; flow rate: 0.8 mL/min; running time: 5.0 min; injection volume: 5 μL.
(§5) • Instrument: API4000 Liquid Chromatography-Mass Spectrometry, AB, USA; • the ion source was electrospray ionization source (ESI); • the temperature of dry gas (N2) was 500° C.; • electrospray voltage was 5500V; • the detection method was positive ion detection; • the scanning mode was selective response monitoring (MRM). • the scanning time was 0.1 s.

Series [1] is described as follows: Plasma stability, rat plasma. The series is classed as in vitro ADME. The note with it: rat plasma, 37° C. On the procedure:
as §1, §2, §3, §4, §5

Series [2] in a line: Plasma stability, dog plasma. The note with it: dog plasma, 37° C. The series is classed as in vitro ADME. The method, then:
as §1, §2, §3, §4, §5

Series [3] concerns human lung cancer NCI-H358 cell xenograft. The series can be described thus: In vivo pharmacodynamics on human lung cancer NCI-H358 cell xenograft tumor model. Also on record: species or system BALB/c nude mice. The method, then: • BALB/c nude mice, 6-8 weeks old, female, purchased from Shanghai Xipuer-Bikai Experimental Animal Co., Ltd. 6.3.2 Cell Culture and Cell Suspension Preparation • 1) MiaPaca-2 cells were taken out from the cell bank and resuscitated with DMEM medium (DMEM+10% FBS), the resuscitated cells were placed in a cell culture flask (labeled with cell type, date, name of cultured person, etc.) and cultured in a CO2 incubator (incubator temperature was 37° C., CO2 concentration was 5%) (the method of resuscitating NCI-H358 cells was the same as MiaPaca-2 cells in test embodiment 5, and the culture medium was changed to RPMI-1640 medium). • 2) Passage was conducted every three to five days, and the cells was continued to be cultured in CO2 incubator after passage. The process was repeated until the cell count meets the in vivo pharmacodynamic requirements. • 3) MiaPaca-2 cells were collected and counted by automatic cell counter, according to the counting results, the cells were re-suspended with PBS and Matrigel (ratio was 1:1) to make cell suspension (cell density was 5×10^7/mL), then placed in a ice box for use (NCI-H358 cells were re-suspended with PBS without adding Matrigel, cell density was 1×10^8/mL). 6.3.3 Sample Preparation: • 1) Solvent: solvent (0.5% CMC-Na+1% Tween 80), storage condition: 4° C.
0.5 g of CMC-Na was weighted, dissolved in ddH2O, then 1.0 mL of Tween 80 was added and the mixture was stirred to mix well, and the volume was finally set to 100 mL. • 2) Compound to be tested (10 mg/kg) was prepared:
8.42 mg of AMG510 compound was weighted, 8.260 mL of solvent was added, a uniform solution was obtained by ultrasound, vortexing and stirring.
7.81 mg of embodiment compound 165-1 was weighted, 7.654 mL of solvent was added, a uniform solution was obtained by ultrasound, vortexing and stirring.
• 1) Before inoculation, nude mice were labeled with disposable universal ear tags of rats and mice; • 2) when inoculating, the cell suspension was mixed well, 0.1-1 mL cell suspension was extracted with a 1 mL syringe, bubbles were removed, and then the syringe was put on an ice bag for later use; • 3) the nude mice was held with left hand, the right back of nude mice near the right shoulder (inoculation site) was disinfected with 75% alcohol, and inoculation was started after 30 seconds; • 4) the experimental nude mice were inoculated in turn (each mouse was inoculated with 0.1 mL of cell suspension); 6.3.4 Tumor-Bearing Mouse were Measured, Grouped, and Administered: • 1) According to the tumor growth, the tumor was measured on the 18th day after inoculation, and the tumor size was calculated. tumor volume (mm^3)=length (mm)×width (mm)×width (mm)/2 Tumor volume calculation: • 2) The tumor-bearing mice were grouped according to their body weight and tumor size using a randomized grouping method. • 3) According to the grouping results, the administration of the test drug was started (administration method: oral administration; administration dose: 10 mg/kg; administration volume: 10 mL/kg; administration frequency: once a day; administration period: 21 days; solvents: 0.5% CMC/1% Tween 80). • 4) The tumor was measured and weighed twice a week after the test drug was started to be given. • 5) After the experiment, all animals were euthanized. • 6) Data was processed with software such as Excel. […]
In general terms: In xenograft studies the graft and the host belong to different species.

Series [4] concerns NCI-H358 cells (KRAS G12C mutant cell line). Put plainly: Inhibition of NCI-H358 cell proliferation (CellTiter-Glo, 72 h). The series is classed as cell-based, human. The note with it: Homo sapiens. An excerpt: As a preferred embodiment of the present disclosure, the detection method of NCI-H358 cell proliferation inhibitory activity and Mia PaCa-2 cell proliferation inhibitory activity is as follows: through cell culture, adding different concentrations of compound solutions to the cultured cells, continuing the culture for a period of time and measuring the cell proliferation; • further, the method of cell culture is: adjusting the cells to a suitable cell concentration with complete medium and spreading the cell suspension in well plates for culture; preferably, the culture conditions are 37° C., 5% CO2 incubator overnight; preferably, the cell suspension is spread in 96-well plates, 48-well plates, 24-well plates, 12-well plates or 6-well plates, more preferably 96-well plates; preferably, the suitable cell concentration is 1500-4000 cells/well, with 90 μL of cell suspension added to each well; • further, the compound solution is prepared with DMSO and may be further diluted with medium; preferably, the compound solution has a concentration gradient starting from 100 μM at 4-fold dilution, more preferably starting from 30 μM at 4-fold dilution, most preferably starting from 10 μM at 4-fold dilution; • further, the volume of the compound solution or solvent added to each well is 1-10 μL, preferably 10 μL; • further, after adding the compound solution, the conditions for continuing the culture are 37° C., 5% CO2 incubator; preferably, the culture time is 24-72 h, more preferably 72 h; • further, the method for measuring cell proliferation is MTT, CCK8, CellTiter-Glo; preferably the method is CellTiter-Glo; • further, the cell proliferation is read using a microplate reader, more preferably a BioTek Synergy H1 microplate reader.
When NCI-H358 or Mia PaCa-2 cells were cultured to the appropriate fusion level, the NCI-H358 or Mia PaCa-2 cells were collected, and the cells were adjusted to the appropriate cell concentration using a complete medium, and the cell suspension was spread in a 96-well plate, 90 μL per well, and placed in a 37° C., 5% CO2 incubator overnight; and compound solutions of different concentrations were prepared using DMSO and culture medium; and a solvent control was set, the compound solution was added to a 96-well plate, 10 μL per well, at 37° C. in a 5% CO2 incubator for 72 hours; CellTiter-Glo solution was added thereto and the mixture was mixed well by shaking, incubated for 10 min in the dark, and read by BioTek Synergy H1 microplate reader.
The luminescence signal values were used to calculate the inhibition rate, the concentration and the inhibition rate were fitted to a nonlinear regression curve using Graphpad Prism software, then the IC50 value was obtained.
(In ATP-based viability assays light output follows the ATP content of the culture.)

A further series deals with T1, human KRAS G12C protein (Homo sapiens, UniProt P01116, G12C).
T1 construct: purchased Beijing SinoBiological Co., Ltd. 12259-H07E2
The series can be described thus: Thermal shift: melting temperature of KRAS G12C protein. The series is classed as binding. On the procedure:
A solution containing […] (pH 7.5), 1 mM DTT, 5×SYPRO Orange and 150 mM NaCl was prepared as the experimental buffer, and a final concentration of 5.37 μM human KRAS G12C protein was added thereto. […] After incubating at room temperature in the dark for 1 hour, the PCR tube was put into the PCR instrument, QuantStudio Software v1.3 was opened, and the melting temperature of KRAS G12C protein in different treatment groups was detected by melt curve function (heating from 25° C. to 95° C., 0.03° C./s). The experimental data file of PCR instrument was imported into thermal shift software, and the melting temperature (Tm) of each treatment group was obtained, and the change value of melting temperature (Δ Tm) was obtained by subtracting the Tm of DMSO solvent control group.

Series [5] has as its system Mia PaCa-2 cells (KRAS G12C mutant cell line). Put plainly: Inhibition of Mia PaCa-2 cell proliferation (CellTiter-Glo, 72 h). The series is classed as cell-based, human. The note with it: Homo sapiens. Summed up:
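Cells were seeded overnight at 37 °C, 5% CO2, then exposed to serially diluted compound (DMSO/medium) alongside a solvent control for 72 h. Viability was read by CellTiter-Glo luminescence, and IC50 was derived by nonlinear regression of inhibition rate against concentration.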

Another series is described as follows: in vivo. The note with it: male, Balb/c, mouse, po, 10 mg/kg.

In the case of `C=CC(=O)N1CCN(c2nc(=O)n(-c3c(C)ccnc3C(C)C)c3nc(-c4c(O)cccc4F)c(F)cc23)[C@@H](C)C1` [AMG 510, reference compound], the “Residual rate (%) 0 min” value in “in vitro” (human, 0.5 μM) came to 100.00%; in the series “in vitro” (mouse plasma, 37° C.) it was 100.00%; in series [1] (0 min), 100.00%; in series [2] (0 min), 100.00%. Further, the “Residual rate (%) 15 min” value in the series “in vitro” (human, 0.5 μM) is given as 93.77%; in “in vitro” (mouse plasma, 37° C.), 97.50%; in series [1] (15 min), 100.85%; in series [2] (15 min), 98.88%. Moreover, the “Residual rate (%) 30 min” value in the series “in vitro” (human, 0.5 μM) is recorded as 85.72%; in the series “in vitro” (mouse plasma, 37° C.) it was 82.58%; in series [1] (30 min), 93.03%; in series [2] (30 min) it was 101.14%. For the same compound, the “Residual rate (%) 60 min” value stood at 82.51% in “in vitro” (human, 0.5 μM); 81.82% in the series “in vitro” (mouse plasma, 37° C.); 77.54% in series [1] (60 min); 93.43% in series [2] (60 min). The “Residual rate (%) 120 min” value is listed as 64.44% in the series “in vitro” (human, 0.5 μM); 63.23% in the series “in vitro” (mouse plasma, 37° C.); 56.77% in series [1] (120 min); 91.92% in series [2] (120 min).
Regarding `C=CC(=O)N1CCN(c2nc(=O)n(-c3c(C)ccnc3C(C)C)c3nc(-c4c(O)cccc4F)c(F)cc23)[C@@H](C)C1` [AMG-510, reference compound], in series [3] (Day 15, 10 mpk oral once a day), the “TGI (%) Day 15” value was found to be 38.02%; the “tumor volume (mm^3, Mean ± SD) Day 15” value was found to be 324 ± 204 mm^3; the “ΔT/ΔC(%) Day 15” value is given as 61.98%. Further, in series [3] (baseline Day 0, 10 mpk oral once a day), the “tumor volume (mm^3, Mean ± SD) Day 0” value stood at 202 ± 72 mm^3.
`C=CC(=O)N1C[C@H](C)N(c2nc(=O)n(-c3c(SC)ccnc3C(C)C)c3nc(-c4c(O)cccc4F)c(F)cc23)C[C@H]1C` [Embodiment 114, 4-((2S, 5R)-4-acryloyl-2,5-dimethylpiperazin-1-yl)-6-fluoro-7-(2-fluoro-6-hydroxyphenyl)-1-(2-isopropyl-4-(methylthio)pyridin-3-yl) pyrido [2,3-d] pyrimidin-2 (1H)-one]: the IC50 (usually the concentration that gives 50% inhibition) in series [4] was 50 nM. Moreover, the “Tm (° C.)” value at human KRAS G12C protein (KRAS G12C protein 5.37 μM with compound 10 μM, 1 hour incubation) came to 57.2 °C. In addition, on human KRAS G12C protein (compound 10 μM, Tm minus Tm of DMSO solvent control), the ΔTm (commonly the shift of the melting midpoint relative to a reference) at 10 µM was determined as 8.5 °C. The IC50 in series [5] turned out to be 43 nM. Also, in the series “in vivo”, the AUC(0-inf) – broadly, total exposure, with the tail of the curve extrapolated – worked out at 1290 ng·h/mL; the Cmax (commonly the highest concentration seen after dosing) was determined as 1530 ng/mL; the MRT – broadly, a mean duration of stay, worked out from the concentration-time curve – stood at 42 min; the Tmax (usually the time from dosing to the highest level) turned out to be 15 min. Moreover, the half-life (commonly how long it takes for the measured level to halve) in “in vivo” is 36 min.
